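Exposure lasted 48 hours, with cells grown in 96-well plates and compounds tested at five concentrations. TGI: concentration producing complete growth inhibition.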
Tests used:
Experiment in all cases: NCI anticancer screen, dose series, 48 h
OVCAR-4 ovarian = tested on: OVCAR-4 ovarian
A549 NSCLC = tested on: A549 NSCLC
OVCAR-5 ovarian = tested on: OVCAR-5 ovarian
MALME-3M melanoma = tested on: MALME-3M melanoma
HOP-92 NSCLC = tested on: HOP-92 NSCLC
HOP-62 NSCLC = tested on: HOP-62 NSCLC
786-0 renal = tested on: 786-0 renal
CCRF-CEM leukemia = tested on: CCRF-CEM leukemia
RXF 393 renal = tested on: RXF 393 renal
SNB-75 CNS = tested on: SNB-75 CNS
KM12 colon = tested on: KM12 colon
SW-620 colon = tested on: SW-620 colon
U251 CNS = tested on: U251 CNS
SF-268 CNS = tested on: SF-268 CNS
SN12C renal = tested on: SN12C renal
T-47D breast = tested on: T-47D breast
M14 melanoma = tested on: M14 melanoma
UO-31 renal = tested on: UO-31 renal
HCT-116 colon = tested on: HCT-116 colon
MDA-MB-231 breast = tested on: MDA-MB-231 breast
PC-3 prostate = tested on: PC-3 prostate
K-562 leukemia = tested on: K-562 leukemia
SF-295 CNS = tested on: SF-295 CNS
OVCAR-8 ovarian = tested on: OVCAR-8 ovarian
HCT-15 colon = tested on: HCT-15 colon
BT-549 breast = tested on: BT-549 breast
RPMI-8226 leukemia = tested on: RPMI-8226 leukemia
HCC-2998 colon = tested on: HCC-2998 colon
HT29 colon = tested on: HT29 colon
SK-MEL-5 melanoma = tested on: SK-MEL-5 melanoma
MCF7 breast = tested on: MCF7 breast
TK-10 renal = tested on: TK-10 renal
A498 renal = tested on: A498 renal
IGROV1 ovarian = tested on: IGROV1 ovarian
UACC-257 melanoma = tested on: UACC-257 melanoma
LOX IMVI melanoma = tested on: LOX IMVI melanoma
SNB-19 CNS = tested on: SNB-19 CNS
MDA-MB-435 = tested on: MDA-MB-435
UACC-62 melanoma = tested on: UACC-62 melanoma
SK-MEL-2 melanoma = tested on: SK-MEL-2 melanoma
NCI/ADR-RES ovarian = tested on: NCI/ADR-RES ovarian
NCI-H23 lung = tested on: NCI-H23 lung
MOLT-4 leukemia = tested on: MOLT-4 leukemia
HL-60(TB) leukemia = tested on: HL-60(TB) leukemia
ACHN renal = tested on: ACHN renal
DU-145 prostate = tested on: DU-145 prostate
NCI-H460 lung = tested on: NCI-H460 lung
EKVX NSCLC = tested on: EKVX NSCLC
CAKI-1 renal = tested on: CAKI-1 renal
COLO 205 colon = tested on: COLO 205 colon
MDA-N = tested on: MDA-N
HS 578T breast = tested on: HS 578T breast
NCI-H226 lung = tested on: NCI-H226 lung
SK-OV-3 ovarian = tested on: SK-OV-3 ovarian
NCI-H522 lung = tested on: NCI-H522 lung
SR leukemia = tested on: SR leukemia
SK-MEL-28 melanoma = tested on: SK-MEL-28 melanoma
OVCAR-3 ovarian = tested on: OVCAR-3 ovarian
SF-539 CNS = tested on: SF-539 CNS

For `CCOC(=O)[C@@H]1CCN2CN(c3ccc(OC)cc3)N=C(c3ccccc3)[C@@]12c1ccccc1`, the TGI (OVCAR-4 ovarian) was > 100 µM, the TGI (A549 NSCLC) was > 100 µM and the TGI (OVCAR-5 ovarian) was > 100 µM. The TGI (MALME-3M melanoma) was 37.9 µM, the TGI (HOP-92 NSCLC) was 27.9 µM and the TGI (HOP-62 NSCLC) was 62.6 µM. The TGI (786-0 renal) was 51.7 µM, the TGI (CCRF-CEM leukemia) was > 100 µM and the TGI (RXF 393 renal) was 35.7 µM. For the same compound, the TGI (SNB-75 CNS) was 57.7 µM, the TGI (KM12 colon) was > 100 µM and the TGI (SW-620 colon) was > 100 µM. The TGI (U251 CNS) was 79.6 µM, the TGI (SF-268 CNS) was > 100 µM and the TGI (SN12C renal) was 34.7 µM. The TGI (T-47D breast) was 74.6 µM, the TGI (M14 melanoma) was 51.3 µM and the TGI (UO-31 renal) was 77.2 µM. For the same compound, the TGI (HCT-116 colon) was 40.2 µM, the TGI (MDA-MB-231 breast) was > 100 µM and the TGI (PC-3 prostate) was > 100 µM. The TGI (K-562 leukemia) was > 100 µM, the TGI (SF-295 CNS) was 77.1 µM and the TGI (OVCAR-8 ovarian) was 61.3 µM. For the same compound, the TGI (HCT-15 colon) was 80.6 µM, the TGI (BT-549 breast) was 55.2 µM and the TGI (RPMI-8226 leukemia) was 82.6 µM. The TGI (HCC-2998 colon) was 67.1 µM, the TGI (HT29 colon) was 72.4 µM and the TGI (SK-MEL-5 melanoma) was 30.5 µM. For the same compound, the TGI (MCF7 breast) was 50 µM, the TGI (TK-10 renal) was > 100 µM and the TGI (A498 renal) was 53.5 µM. For the same compound, the TGI (IGROV1 ovarian) was 72.1 µM, the TGI (UACC-257 melanoma) was 49.7 µM and the TGI (LOX IMVI melanoma) was 29.6 µM. The TGI (SNB-19 CNS) was > 100 µM, the TGI (MDA-MB-435) was > 100 µM and the TGI (UACC-62 melanoma) was 35 µM. For the same compound, the TGI (SK-MEL-2 melanoma) was 46.1 µM, the TGI (NCI/ADR-RES ovarian) was 67.9 µM and the TGI (NCI-H23 lung) was 73.5 µM. For the same compound, the TGI (MOLT-4 leukemia) was > 100 µM, the TGI (HL-60(TB) leukemia) was > 100000 nM and the TGI (ACHN renal) was 91.5 µM. The TGI (DU-145 prostate) was 70.7 µM, the TGI (NCI-H460 lung) was > 100 µM and the TGI (EKVX NSCLC) was > 100 µM. The TGI (CAKI-1 renal) was > 100 µM, the TGI (COLO 205 colon) was 61.3 µM and the TGI (MDA-N) was > 100 µM. The TGI (HS 578T breast) was 70.3 µM, the TGI (NCI-H226 lung) was 38.9 µM and the TGI (SK-OV-3 ovarian) was > 100 µM. For the same compound, the TGI (NCI-H522 lung) was 49.5 µM, the TGI (SR leukemia) was > 100 µM and the TGI (SK-MEL-28 melanoma) was 56 µM.

Compound `C=C1C(=O)O[C@H]2[C@H](OC(C)=O)[C@@H](C)CCC/C(C)=C/CC[C@@]3(C)O[C@@H]3C[C@@H]12` has a TGI (OVCAR-4 ovarian) of 8.76 µM, a TGI (A549 NSCLC) of 34.6 µM and a TGI (OVCAR-5 ovarian) of 27.6 µM. For the same compound, the TGI (MALME-3M melanoma) was 30.6 µM, the TGI (HOP-92 NSCLC) was 5.54 µM and the TGI (OVCAR-3 ovarian) was 16.2 µM. It also gave a TGI (HOP-62 NSCLC) of 43.6 µM, a TGI (786-0 renal) of 3.56 µM and a TGI (CCRF-CEM leukemia) of 3.76 µM. It also gave a TGI (RXF 393 renal) of 5.08 µM, a TGI (SNB-75 CNS) of 21.2 µM and a TGI (KM12 colon) of 18.8 µM. The TGI (SW-620 colon) was > 23.1 µM, the TGI (SF-539 CNS) was 13.9 µM and the TGI (U251 CNS) was 21.7 µM. The TGI (SF-268 CNS) was 14 µM, the TGI (SN12C renal) was 4.05 µM and the TGI (T-47D breast) was 3.62 µM. For the same compound, the TGI (M14 melanoma) was > 40.4 µM, the TGI (UO-31 renal) was 7.51 µM and the TGI (HCT-116 colon) was 6.83 µM. For the same compound, the TGI (MDA-MB-231 breast) was 10.6 µM, the TGI (PC-3 prostate) was > 47.5 µM and the TGI (K-562 leukemia) was > 100 µM. For the same compound, the TGI (SF-295 CNS) was 28.5 µM, the TGI (OVCAR-8 ovarian) was 2.63 µM and the TGI (HCT-15 colon) was 10.1 µM. For the same compound, the TGI (BT-549 breast) was 8.76 µM, the TGI (RPMI-8226 leukemia) was 6.5 µM and the TGI (HCC-2998 colon) was 11.6 µM. It also gave a TGI (HT29 colon) of 8.05 µM, a TGI (SK-MEL-5 melanoma) of 15.5 µM and a TGI (MCF7 breast) of 7.71 µM. The TGI (TK-10 renal) was 5 µM, the TGI (A498 renal) was 8.76 µM and the TGI (IGROV1 ovarian) was 18.4 µM. For the same compound, the TGI (UACC-257 melanoma) was 11.7 µM, the TGI (LOX IMVI melanoma) was 3.9 µM and the TGI (SNB-19 CNS) was 34 µM. For the same compound, the TGI (MDA-MB-435) was 15.1 µM, the TGI (UACC-62 melanoma) was 9.43 µM and the TGI (SK-MEL-2 melanoma) was 19.5 µM. For the same compound, the TGI (NCI/ADR-RES ovarian) was 4 µM, the TGI (NCI-H23 lung) was 10.8 µM and the TGI (MOLT-4 leukemia) was 10.1 µM. For the same compound, the TGI (HL-60(TB) leukemia) was 2380 nM, the TGI (ACHN renal) was 3.4 µM and the TGI (DU-145 prostate) was 6.87 µM. The TGI (NCI-H460 lung) was 19.7 µM, the TGI (EKVX NSCLC) was 8.79 µM and the TGI (CAKI-1 renal) was 5.37 µM. The TGI (COLO 205 colon) was 16.5 µM, the TGI (MDA-N) was 10.6 µM and the TGI (HS 578T breast) was 13.2 µM. For the same compound, the TGI (NCI-H226 lung) was 3.32 µM, the TGI (SK-OV-3 ovarian) was 30.5 µM and the TGI (NCI-H522 lung) was 3.9 µM. It also gave a TGI (SR leukemia) of 6.02 µM and a TGI (SK-MEL-28 melanoma) of 11.1 µM.

Reference: PubChem BioAssay (NCI)
